# Source: US20250090567A1, “5-FU AND RNAOG COMBINED IMMUNOCHEMOTHERAPY FOR PANCREATIC CANCER TREATMENT” (ARIZONA BOARD OF REGENTS ON BEHALF OF ARIZONA STATE …, priority 2022, published 2025)
# System: MiaPaca-2-iRFP tumors
# Experiment: In vivo efficacy, subcutaneous MiaPaca-2-iRFP xenograft, intratumor treatment
# Details: nude mice, twice a week, total 7 times
# Description: FIG. 4A. schematic illustration of tumor inoculation and treatment schedule. Nude mice received subcutaneous (SC) injection of […] MiaPaca2-iRFP on day 0. Starting on week 4, the mice received intratumor injections of PBS, 5FU, RNAOG, RNAOG+5FU, or 5FU-RNAOG twice a week for total 7 times.
# FIG. 4B. Tumor progression monitored by LI-COR Imaging of near infrared fluorescence intensity from the MiaPaca2-iRFP cell line that expresses iRFP.
# FIG. 4C. Tumor dimensions were also measured for each treatment.
# FIG. 4D. The survival curve of each treatment group. **and***indicate p<0.01 and p<0.001, respectively.
# The in vitro tumor cell suppression effect of 5FU-RNAOG justified further investigation as to whether the combination of the RNAOG with the anticancer drug 5-fluorouracil (5FU) exerts anti-tumor activity in vivo. The human pancreatic cancer cell line, MiaPaca-2, was used as the model because it forms solid tumors in nude mice upon subcutaneous injection (SC). Specifically, MiaPaca-2 cells were engineered to express near infrared fluorescent protein (iRFP) which allows for real-time monitoring of tumor growth of live animals, especially when the tumor load is low. […] Tumor progression was monitored via the fluorescent intensity of iRFP (FIG. 4B), as well as the directly measured tumor size (FIG. 4C). […]
smiles,measurement,value
"O=c1[nH]cc(F)c(=O)[nH]1 [5FU, 5-fluorouracil]",tumor progression (iRFP fluorescence intensity and tumor size),developed large tumors
